In patent publication US6576627B1, “Phosphonic acid derivatives having carboxypeptidase b inhibitory activity” (Meiji Seika Kaisha Ltd., priority 1999, dated 2003):

Target: T1, carboxypeptidase B (Homo sapiens, UniProt Q96IY4)
T1 construct: from tissue; host or cells: human plasma (citrated)
T1 sequence (Q96IY4 115-423): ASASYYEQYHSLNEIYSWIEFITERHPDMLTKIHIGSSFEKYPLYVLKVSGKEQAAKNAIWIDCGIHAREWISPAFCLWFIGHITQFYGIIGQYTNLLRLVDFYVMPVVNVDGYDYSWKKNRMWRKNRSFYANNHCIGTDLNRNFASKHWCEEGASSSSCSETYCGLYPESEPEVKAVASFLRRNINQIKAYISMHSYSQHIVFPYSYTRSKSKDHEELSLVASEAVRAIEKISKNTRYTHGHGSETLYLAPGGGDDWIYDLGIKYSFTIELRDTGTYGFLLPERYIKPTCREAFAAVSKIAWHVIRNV
Assay: Inhibitory activity against carboxypeptidase B (activated pro-CPB partially purified from human plasma, Hip-Arg substrate)
Type: biochemical
Settings: tested substance 500 nM, 25° C. for 60 minutes, absorbance at 405 nm
Description: Inhibitory activity of the compounds of the present invention against carboxypeptidase B was measured as follows according to the method described in Thromb. Haemost. 371(1998).
(a) Partial Purification of Carboxypeptidase B Precursor (pro-CPB) from Human Plasma
Human plasma collected over citric acid was added with 80 mM barium chloride and treated at 4° C. for 30 minutes. The supernatant obtained by centrifugation at 10,000 rpm for 20 minutes was dialyzed against 20 mM HEPES buffer containing 0.15 M sodium chloride (pH 7.4). Furthermore, protein in the fractions obtained with 30% to 80% ammonium sulfate were partially purified by chromatography using a Q-Sepharose column (elution with 50 mM tris-HCl buffer (pH 7.4) gradually containing sodium chloride to 0.5 M).
(b) Activation of pro-CPB
pro-CPB (20 μl) was added with 20 μl of a thrombomodulin solution (Thrombomodulin derived from rabbit lung, American Diagnostia Inc., Product No. #237, dissolved at concentration of 300 ng/ml in buffer A as 50 mM tris-HCl buffer (pH 7.4) supplemented with 0.1% Lubrol, 0.1% BSA and 0.15 M sodium chloride), and treated at 25° C. for 3 minutes. Then, the mixture was added with 20 μl of thrombin (Thrombin derived from human plasma, Sigma, Product No. T8885, dissolved at concentration of 3 u/ml in buffer B as 50 mM Tris-HCl buffer (pH 7.4) supplemented with 0.1% BSA, 0.15 M NaCl and 10 mM calcium chloride) and further treated at 25° C. for 30 minutes for activation(*1).
(c) Measurement of CPB Inhibitory Activity
By using a microplate, 4 μl of the sample was added with a mixed solution of 41 μl of buffer C (0.1 M tris-HCl buffer (pH 7.6)) and 25 μl of a substrate solution (Hip-Arg, Sigma, H2508, dissolved in buffer C at concentration of 4 mM.), and further added with 10 μl of the activated CPB solution (*1), and then the mixture was well mixed and allowed to react at 25° C. for 60 minutes. Then, 100 μl of 0.2 M PIPES buffer (pH 7.5) containing 12.5% Tween was added to the mixture to stop the reaction. After 5 minutes, the mixture was added with 100 μl of a coloring solution (2-methoxyethanol containing 1% cyanuryl chloride) and allowed to stand at room temperature for 15 minutes, and then absorbance was measured at 405 nm by using a microplate reader (Bio Rad Model 3550).
Inhibitory activity against carboxypeptidase B was calculated by using the following equation as an inhibitory rate, wherein A represents absorbance in the absence of a tested substance; B represents absorbance in the presence of a tested substance (500 nM); A′ and B′ represent the aforementioned absorbances obtained by using non-activated enzyme without and with the tested substance, respectively.
Inhibitory rate (%)=[1−{(B-B′)/(A-A′)}]×100
The results of the carboxypeptidase B inhibitory rates are shown in Table 1, which were calculated by using the above equation and the results of the measurements in the above experiments for the compounds of the present invention.

`CC(C)C(NC(=O)CCc1ccccc1)P(=O)(O)OC(CCCCN)C(=O)O` [Example 2, (S)-6-Amino-2-((2-methyl-1-(3-phenylpropanoylamino)propyl)(hydroxyphosphinoyl)oxy)hexanoic acid] was tested, and the “Carboxypeptidase B inhibitory rates by tested substance at 500 nM” value was greater than 90%.

Same assay, conditions: tested substance 500 nM, 25° C. for 60 minutes, absorbance at 405 nm, read-out: Carboxypeptidase B inhibitory rates by tested substance at 500 nM

First: C[C@H](NC(=O)OCc1ccccc1)P(=O)(O)O[C@@H](CCCCN)C(=O)O [Example 1, (S)-6-Amino-2-(((R)-1-(benzyloxycarbonylamino)ethyl)(hydroxyphosphinoyl)oxy)hexanoic acid]
Second: CC(NC(=O)CCc1ccccc1)P(=O)(O)OC(CCCCN)C(=O)O [Example 4, (S)-6-Amino-2-((1-(3-phenylpropanoylamino)ethyl)(hydroxyphosphinoyl)oxy)hexanoic acid]
The inhibition at 0.5 µM of the first is lower: 30% for the first, greater than 90% for the second.

`CCC(CC)C(NC(=O)CCc1ccccc1)P(=O)(O)OC(CCCCN)C(=O)O` [Example 3, (S)-6-Amino-2-((2-ethyl-1-(3-phenylpropanoylamino)butyl)(hydroxyphosphinoyl)oxy)hexanoic acid] and `CC(C)C(NC(=O)CCc1ccccc1)P(=O)(O)OC(CCCCN)C(=O)O` [Example 19, (S)-6-Amino-2-((2-methyl-(1R)-(3-phenylpropanoylamino)propyl)(hydroxyphosphinoyl)oxy)hexanoic acid] cannot be ordered by inhibition at 0.5 µM: greater than 90% for the first, greater than 90% for the second.

Compared with `NCCCC[C@H](OP(=O)(O)CNC(=O)CCc1ccccc1)C(=O)O` [Example 5, (S)-6-Amino-2-(((3-phenylpropanoylamino)methyl)(hydroxyphosphinoyl)oxy)hexanoic acid], `CCC(NC(=O)CCc1ccccc1)P(=O)(O)OC(CCCCN)C(=O)O` [Example 16, (S)-6-Amino-2-((1-(3-phenylpropanoylamino)propyl)(hydroxyphosphinoyl)oxy)hexanoic acid] is higher in inhibition at 0.5 µM: 30% for the first, greater than 90% for the second.

`NCCCCC(OP(=O)(O)C(NC(=O)CCc1ccccc1)C1CC1)C(=O)O` [Example 6, (S)-6-Amino-2-((1-cyclopropyl(3-phenylpropanoylamino)methyl)(hydroxyphosphinoyl)oxy)hexanoic acid] and `NCCCC[C@H](OP(=O)(O)C(NC(=O)CCc1ccccc1)C1CCC1)C(=O)O` (stereo partly drawn) [Example 10, (S)-6-Amino-2-((1-cyclobutyl-1-(3-phenylpropanoylamino)methyl)(hydroxyphosphinoyl)oxy)hexanoic acid] cannot be ordered by inhibition at 0.5 µM: greater than 90% for the first, greater than 90% for the second.

First: CCCC(NC(=O)CCc1ccccc1)P(=O)(O)OC(CCCCN)C(=O)O [Example 8, (S)-6-Amino-2-((1-(3-phenylpropanoylamino)butyl)(hydroxyphosphinoyl)oxy)hexanoic acid]
Second: NCCCCC(OP(=O)(O)C(CCCN)NC(=O)CCc1ccccc1)C(=O)O [Example 40, (S)-6-Amino-2-((4-amino-1-(3-phenylpropanoylamino)butyl)(hydroxyphosphinoyl)oxy)hexanoic acid]
The inhibition at 0.5 µM of the first is higher: greater than 90% for the first, 30% for the second.

`NCCCCC(OP(=O)(O)C(NC(=O)CCc1ccccc1)C1CCCCC1)C(=O)O` [Example 9, (S)-6-Amino-2-((1-cyclohexyl-1-(3-phenylpropanoylamino)methyl)(hydroxyphosphinoyl)oxy)hexanoic acid] and `NCCCCC(OP(=O)(O)C(NC(=O)CCc1ccccc1)C1CCOCC1)C(=O)O` [Example 35, (S)-6-Amino-2-((1-(3-phenylpropanoylamino)-1-(tetrahydropyran-4-yl)methyl)(hydroxyphosphinoyl)oxy)bexanoic acid] cannot be ordered by inhibition at 0.5 µM: greater than 90% for the first, greater than 90% for the second.

Going from `CC(C)CC(NC(=O)CCc1ccccc1)P(=O)(O)OC(CCCCN)C(=O)O` [Example 12, (S)-6-Amino-2-((3-methyl-1-(3-phenylpropanoylamino)butyl)(hydroxyphosphinoyl)oxy)hexanoic acid] to `NCCCCC(OP(=O)(O)C(CO)NC(=O)CCc1ccccc1)C(=O)O` [Example 37, (S)-6-Amino-2-((2-hydroxy-1-(3-phenylpropanoylamino)ethyl)(hydroxyphosphinoyl)oxy)hexanoic acid], the inhibition at 0.5 µM falls from greater than 90% to 70%.

`NCCCC[C@H](OP(=O)(O)C1(NC(=O)CCc2ccccc2)CCCCC1)C(=O)O` [Example 14, (S)-6-Amino-2-((1-(3-phenylpropanoylamino)cyclohexyl)(hydroxyphosphinoyl)oxy)hexanoic acid] and `NCCCC[C@H](OP(=O)(O)C1(NC(=O)CCc2ccccc2)CCCC1)C(=O)O` [Example 20, (S)-6-Amino-2-((1-(3-phenylpropanoylamino)cyclopentyl)(hydroxyphosphinoyl)oxy)hexanoic acid] cannot be ordered by inhibition at 0.5 µM: greater than 90% for the first, greater than 90% for the second.

First: CC(C)(C)CC(NC(=O)CCc1ccccc1)P(=O)(O)OC(CCCCN)C(=O)O [Example 23, (S)-6-Amino-2-((3,3-dimethyl-1-(3-phenylpropanoylamino)butyl)(hydroxyphosphinoyl)oxy)hexanoic acid]
Second: NCCCCC(OP(=O)(O)C(CCC(F)(F)F)NC(=O)CCc1ccccc1)C(=O)O [Example 25, (S)-6-Amino-2-((4,4,4-trifluoro-1-(3-phenylpropanoylamino)butyl)(hydroxyphosphinoyl)oxy)hexanoic acid]
The inhibition at 0.5 µM of the first is lower: 50% for the first, 80% for the second.

`CC(C)C(NC(=O)CCCc1ccccc1)P(=O)(O)OC(CCCCN)C(=O)O` [Example 24, (S)-6-Amino-2-(2-methyl-1-(4-phenylbutanoylamino)propyl(hydroxyphosphinoyl)oxy)hexanoic acid] and `CC1CCC(C(NC(=O)CCc2ccccc2)P(=O)(O)OC(CCCCN)C(=O)O)CC1` [Example 41, (S)-6-Amino-2-((1-(4-methylcyclohexyl)-1-(3-phenylpropanoylamino)methyl)(hydroxyphosphinoyl)oxy)hexanoic acid] cannot be ordered by inhibition at 0.5 µM: greater than 90% for the first, greater than 90% for the second.

Compared with `NCCCCC(OP(=O)(O)C(NC(=O)CCc1ccccc1)c1ccccc1)C(=O)O` [Example 34, (S)-6-Amino-2-((1-phenyl-1-(3-phenylpropanoylamino)methyl)(hydroxyphosphinoyl)oxy)hexanoic acid], `NCCCCC(OP(=O)(O)C(NC(=O)CCc1ccccc1)C1CCNCC1)C(=O)O` [Example 39, (S)-6-Amino-2-((1-(piperidin-4-yl)-1-(3-phenylpropanoylamino)methyl)(hydroxyphosphinoyl)oxy)hexanoic acid] is higher in inhibition at 0.5 µM: 40% for the first, greater than 90% for the second.

System: ICR male mice
Assay: Toxicity test by single administration
Type: in vivo
Settings: single intravenous administration in saline, dose of 1 g/kg, ICR male mice of 5 weeks old
Description: Toxicity Test Example by Single Administration
The compound of Example 19 of the present invention was dissolved in saline intravenously administered to 6 individuals of ICR male mice of 5 weeks old.

In the case of `CC(C)C(NC(=O)CCc1ccccc1)P(=O)(O)OC(CCCCN)C(=O)O` [Example 19, (S)-6-Amino-2-((2-methyl-(1R)-(3-phenylpropanoylamino)propyl)(hydroxyphosphinoyl)oxy)hexanoic acid], the “death of the mice or severe toxicity” value was “no death of the mice or severe toxicity was observed”.
